Reference: US20250197447A1, “PEPTIDE HAVING ANTI-AGING ACTIVITY, AND USE THEREOF” (CAREGEN CO., LTD., priority 2021, published 2025)

Legend:
[1] = system: elastin; assay: RT-PCR of elastin mRNA decreased by UV irradiation in fibroblasts; format: cell-based, mouse; conditions: NIH3T3 cells; peptide 10, 50, 100 μM before 6 J/cm^2 UVA; 6 hours culture; FIGS. 2A, 2D
Experimental: (§1) Expression of collagen, fibronectin, and elastin genes constituting the extracellular matrix (ECM) is inhibited when irradiated with UV. Therefore, it was confirmed whether the photoaging phenomenon of the cells was inhibited by confirming whether the expression levels of collagen, fibronectin, and elastin genes were restored and increased when treated with the peptide of the present invention.
(§2) First, NIH3T3 cells were seeded in a 6-well plate at a cell density of 5×10^5 cell/well, and then the cells were cultured in DMEM medium containing 10% fetal bovine serum (FBS) for 24 hours. The cultured cells were washed once with serum free DMEM medium, and the peptide of the present invention was mixed in 1 mL of the serum free DMEM medium at each of concentrations of 10, 50, and 100 μM, and dispensed into the cells. A positive control (PC) was treated with 50 μM of Quercetin instead of the above peptide.
(§3) The cells were cultured in a CO2 incubator at 37° C. for 1 hour. […] The amount of RNA isolated was quantified, 1,000 ng of RNA per tube was added, and reverse transcription into cDNA was performed using a kit (enzynomics, Cat. No.: RT200, Korea), and RT-PCR was performed using a PCR kit (enzynomics, Cat. No.: P581T, Korea). […]

[2] = system: MMP-1; assay: Western blot of MMP-1 increased by UV irradiation in fibroblasts; format: cell-based, mouse; conditions: NIH3T3 cells; peptide 10, 50, 100 μM before 6 J/cm^2 UVA; 48 hours culture; FIGS. 4A, 4B
Experimental: (§4) The expression of MMP-1 and MMP-2 encoding proteins related to collagen degradation is increased by ultraviolet irradiation. Therefore, it was confirmed whether the synthesis of the MMP-1 and MMP-2 proteins was inhibited again and the cell aging phenomenon was inhibited when treated with the peptide of the present invention.
(§5) First, NIH3T3 cells were seeded in a 6-well plate at a cell density of 5×10^5 cell/well, and then the cells were cultured in DMEM medium containing 10% fetal bovine serum (FBS) for 24 hours. The cultured cells were washed once with serum free DMEM medium, and the peptide of the present invention was mixed in 1 mL of the serum free DMEM medium at each of concentrations of 10, 50, and 100 μM, and dispensed into the cells. A positive control (PC) was treated with 2.5 mM of N-Acetylcysteine (NaC) instead of the above peptide.
(§6) The cells were cultured in a CO2 incubator at 37° C. for 1 hour. The medium of the cultured cells was transferred to a tube, 1 ml of PBS was added, and irradiation was performed with 6 J/cm^2 of UVA using a UV irradiator (VILBER LOURMAT, Cat No.: 3102-BSU, France). After removing PBS, 900 μL of the medium transferred to the tube was added, and culture was performed in a CO2 incubator at 37° C. for 48 hours. […]

[3] = system: MMP-2; assay: Gelatin zymography of MMP-2 in culture medium after UV irradiation of fibroblasts; format: cell-based, mouse; conditions: NIH3T3 cells, peptide 10, 50, 100 μM before 6 J/cm^2 UVA, 48 hours culture, FIGS. 4A, 4C
Experimental: as §4, §5, §6

[4] = system: NIH3T3 cells (mouse fibroblast cell line); assay: Intracellular reactive oxygen species (ROS) level after UVA irradiation, DCFH-DA / FACS; format: cell-based; conditions: peptide 10, 50, 100 μM for 1 hour before 8 J/cm^2 UVA, 24 hours culture, FIG. 1
Experimental: The reactive oxygen species level increases when UV is irradiated. Therefore, it was confirmed whether the reactive oxygen species level decreased again and the aging phenomenon caused by oxidative stress in cells was inhibited when treated with the peptide of the present invention.
First, NIH3T3 cells (mouse fibroblast cell line) were seeded in a 6-well plate at a cell density of 5×10^5 cell/well, and then the cells were cultured in DMEM medium containing 10% fetal bovine serum (FBS) for 24 hours. The cultured cells were washed once with serum free DMEM medium, and the peptide of the present invention was mixed in 1 mL of the serum free DMEM medium at each of concentrations of 10, 50, and 100 μM, and then dispensed into the cells. A positive control (PC) was treated with 7.5 mM of N-Acetylcysteine (NaC) instead of the above peptide.
The cells were cultured in a CO2 incubator at 37° C. for 1 hour. The medium of the cultured cells was transferred to a tube, 1 ml of PBS was added, and irradiation was performed with 8 J/cm^2 of UVA using a UV irradiator (VILBER LOURMAT, Cat No.: 3102-BSU, France). After removing PBS, 900 μL of the medium transferred to the tube was treated again, and culture was performed in a CO2 incubator at 37° C. for 24 hours. […] After centrifugation, the cells were washed with PBS, and a fluorescence value was measured through FACS.

[5] = system: apoptotic-inducing factors (Cleaved PARP-1, Bax, Cleaved Caspase-3); assay: Western blot of apoptotic-inducing factors increased by UV irradiation in NIH3T3 fibroblasts; format: cell-based, mouse; conditions: peptide 10, 50, 100 μM before 6 J/cm^2 UVA, 48 hours culture, FIGS. 3A to 3D
Experimental: Expression of the apoptotic-inducing factors increases when irradiated with UV. Therefore, it was confirmed whether the photoaging phenomenon of the cells was inhibited and the damaged cells were regenerated by confirming whether the increased expression levels of the apoptotic-inducing factors such as cleaved PARP-1, cleaved Caspase-3, and […] decreased again when treated with the peptide of the present invention.
as §5
The cells were cultured in a CO2 incubator at 37° C. for 1 hour, the medium of the cultured cells was transferred to a tube, 1 mL of PBS was added, and then irradiation was performed with 6 J/cm^2 of UVA using a UV irradiator (VILBER LOURMAT, Cat No.: 3102-BSU, France). After removing PBS, 900 μL of the medium transferred to the tube was added again, and culture was performed in a CO2 incubator at 37° C. for 48 hours. […]

[6] = system: collagen (Col1a1); assay: RT-PCR of collagen (Col1a1) mRNA decreased by UV irradiation in fibroblasts; format: cell-based, mouse; conditions: NIH3T3 cells; peptide 10, 50, 100 μM before 6 J/cm^2 UVA; 6 hours culture; FIGS. 2A, 2B
Experimental: as §1, §2, §3

[7] = system: fibronectin; assay: RT-PCR of fibronectin mRNA decreased by UV irradiation in fibroblasts; format: cell-based, mouse; conditions: NIH3T3 cells; peptide 10, 50, 100 μM before 6 J/cm^2 UVA; 6 hours culture; FIGS. 2A, 2C
Experimental: as §1, §2, §3

[8] = system: MMP-1; assay: Western blot of MMP-1 increased by heat treatment in fibroblasts; format: cell-based, mouse; conditions: NIH3T3 cells; peptide 10, 50, 100 μM for 24 hours before 44° C. for 40 minutes; 8 hours culture; FIGS. 5A, 5B
Experimental: The expression of MMP-1 encoding proteins related to collagen degradation increases by heat treatment. Therefore, it was confirmed whether the synthesis of the MMP-1 protein was inhibited again and the cell aging phenomenon was inhibited when treated with the peptide of the present invention.
First, NIH3T3 cells were seeded in a 6-well plate at a cell density of 5×10^5 cell/well, and then the cells were cultured in DMEM medium containing 10% fetal bovine serum (FBS) for 24 hours. The cultured cells were washed once with serum free DMEM medium, and the peptide of the present invention was mixed in 1 mL of the serum free DMEM medium at each of concentrations of 10, 50, and 100 μM, and dispensed into the cells. A positive control (PC) was treated with 2.5 mM of N-Acetylcysteine (NaC) or 2 mM of Glutathione (GSH) instead of the above peptide.
The cells were cultured in a CO2 incubator at 37° C. for 24 hours. A lid and a lower plate of the 6-well plate were sealed with a paraffin film for heat treatment, the lower plate was immersed in a water bath at 44° C., and culture was performed for 40 minutes. After removing the medium, 1 mL of the serum free DMEM medium was added, and culture was performed in a CO2 incubator at 37° C. for 8 hours. Thereafter, the cells were washed twice with PBS, and then a cell lysis buffer was added to obtain a lysate. […]

LKKNGSCKRGPRTHYGQK [peptide of the present invention]
mRNA expression of elastin decreased by UV irradiation [1]: increased
expression and activity of MMP-1 increased by UV irradiation [2]: inhibited
expression and activity of MMP-2 increased by UV irradiation [3]: inhibited
intracellular reactive oxygen species level increased by ultraviolet irradiation [4]: decreased
expression of the apoptotic-inducing factors increased in the cells damaged by UV irradiation [5]: decreased
mRNA expression of collagen decreased by UV irradiation [6]: increased
mRNA expression of fibronectin decreased by UV irradiation [7]: increased
amount of MMP-1 protein whose expression was increased by heat treatment [8]: decreased
